Experiments:
[1] = biological target: T1, CCR1 receptor (Homo sapiens, UniProt P32246); experiment: In vitro Ca2+-flux assay on human monocytes (THP-1), MIP-1α stimulated; format: cell-based; conditions: block of MIP-1α induced Ca2+-flux in THP-1 cells; 2,5-dimethylpiperazine derivatives tested as racemic mixtures
T1 construct: host or cells: THP-1
T1 sequence (P32246 1-355): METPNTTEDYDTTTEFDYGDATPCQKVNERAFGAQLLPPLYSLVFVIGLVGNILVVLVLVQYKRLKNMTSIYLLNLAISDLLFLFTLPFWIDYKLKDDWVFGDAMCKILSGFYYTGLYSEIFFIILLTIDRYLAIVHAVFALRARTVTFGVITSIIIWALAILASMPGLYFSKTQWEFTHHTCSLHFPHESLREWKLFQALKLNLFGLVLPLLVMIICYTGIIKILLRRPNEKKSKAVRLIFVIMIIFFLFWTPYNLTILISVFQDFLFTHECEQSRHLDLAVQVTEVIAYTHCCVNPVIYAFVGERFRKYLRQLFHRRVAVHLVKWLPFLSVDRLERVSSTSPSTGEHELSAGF
Method: The binding of Mip-1α at the CCR1 receptor leads to an increase of intracellular calcium levels. The ability of the compounds of the invention to block this biologic response of the CCR1 receptor is determined in the Ca^2+-flux assay.
In Vitro Ca^2+-Flux Assay on Human Monocytes
• 1. Cell Culture: • a) THP-1 (ATCC Cat# TIB202) • b) Tissue culture medium: RPMI 1640 with Ultraglutamine 1 supplemented with 10% (v/v) foetal calf serum. This medium is hereinafter referred to as “growth medium”. • 2. Assay buffer: HBSS (Hanks' balanced salts solution), 20 mM HEPES, 1 mM CaCl2, 1 mM MgCl2, 2.5 mM Probenecid, pH 7.4. • 3. Fluo-4AM (Molecular Probes Cat # F14201) • 4. Pluronic® F-127 (Molecular Probes Cat # P-6867) • 5. The compounds of the invention were dissolved in DMSO. A serial dilution was made and nine concentrations of each compound were screened to generate a dose curve from which the IC50 value was determined. • 6. MIP-1α (Peprotech EC Ltd Cat# 300-08) • 7. Victor^2 1420 (Perkin Elmer) • 8. Microlite™^2+ (Dynex Cat # 7572) Assay Procedure:
THP-1 cells were grown in T-75 cm^2 flasks in growth medium at 37° C. in 5% CO2. The cells were harvested by centrifugation and resuspended in assay buffer. The cells were then loaded with 5 μM Fluo-4 and 0.02% pluronic acid (final concentrations) at 37° C. in 5% CO2 for 30 min. The excess dye was removed by washing with assay buffer. The cells were resuspended and 10^5 cells/well were added in a Microlite plate containing compounds and then incubated for 15 minutes at 37° C. in 5% CO2. The cells were then stimulated with MIP-1α and changes in intracellular free Ca^2+ concentration were measured with a Victor^2.
Using the procedures set forth in the competitive affinity binding assay and the Ca^2+-flux assay, various compounds of the invention were tested for their ability to block Ca^2+-flux (IC50^Ca). The results of some examples and the Compounds A, B, C, and D are shown in Table 2 where all IC50-values are given in nM (nano Molar). Table 2 exemplifies the invention without limiting the scope thereof.

[2] = In vivo bioavailability in the mouse (cassette dosing); conditions: female SJL/N Tac mice; for half-life / clearance: mouse, nominal dose 1 mg/kg; for half-life: plasma half-life; for clearance: plasma; for F: oral bioavailability, nominal dose 1 mg/kg iv and oral
Method: In Vivo Bioavailability in the Mouse
Female mice (SJL/N Tac) were given a single intravenous or oral dose of a mixture of 5 or 6 compounds per cassette (nominal dose: 1 mg/kg/compound) in a solution containing 0.5% N,N′-dimethylacetamide (DMA) and 15% sulfobutyl ether β-cyclodextrin (Captisol®). Blood samples were taken from one mouse per time point and dose group until 24 hour after respective administration. The dose formulations and plasma concentrations of each compound were determined by LC-MS/MS. The pharmacokinetic parameters were determined by non-compartmental analysis using WinNonlin Professional (version 4.0.1). The elimination rate constant, λ, was estimated by linear regression analysis of the terminal slope of the logarithmic plasma concentration-time curve. The area under the plasma concentration-time curve, AUC0-t, was calculated by using the linear/logarithmic trapezoidal rule. The AUCinf was calculated with the residual area estimated as Cz/λ. The calculated plasma concentration at the last time point, Cz, was obtained from the regression equation. The oral bioavailability (F) was calculated as: Foral=(AUCinf,po/AUCinf,iv)·(Doseiv/Dosepo). Pharmacodynamic Assays
The compounds of the invention show oral bioavailability in the mouse. Using the procedures set forth in the in vivo bioavailability assay, various compounds of the invention were tested for their clearance (CL; L/h/kg), plasma half-life (t1/2; hrs) as well as oral bioavailability (F; %) after administration of the nominal dose of 1 mg/kg of each compound. Table 3 exemplifies the invention, without limiting the scope thereof.

For `O=C(c1cc2ccccc2o1)N1CCN(Cc2ccc(Cl)cc2)CC1` [Compound C, 4-(4-chlorobenzyl)-1-(benzofuran-2-yl-carbonyl)-piperazine, reference compound], the IC50 [1] was greater than 1000 nM.
For `C[C@@H]1CN(C(=O)c2cc3cc(Cl)ccc3o2)[C@@H](C)CN1Cc1ccc(F)cc1` (racemic) [Compound 4.1, (trans)-1-(5-Chloro-benzofuran-2-yl-carbonyl)-4-(4-fluorobenzyl)-2,5-dimethylpiperazine], the half-life [2] was 4.8 h, the clearance [2] was 43.3 mL/min/kg and the F [2] was 72%.
`Cc1ccc2cc(C(=O)N3C[C@@H](C)N(Cc4ccc(F)cc4)C[C@@H]3C)oc2c1` (racemic) [Compound 3.13, (trans)-4-(4-Fluorobenzyl)-1-(6-methyl-benzofuran-2-yl-carbonyl)-2,5-dimethylpiperazine] showed an IC50 [1] of 20 nM.
`C[C@@H]1CN(C(=O)c2cc3cc(Br)ccc3o2)[C@@H](C)CN1Cc1ccc(F)cc1` (racemic) [Compound 3.1, (trans)-1-(5-Bromo-benzofuran-2-yl-carbonyl)-4-(4-fluorobenzyl)-2,5-dimethylpiperazine] showed an IC50 [1] of 12 nM, a half-life [2] of 7 h and a clearance [2] of 15 mL/min/kg. It also gave an F [2] of 53%.
Compound `C[C@@H]1CN(C(=O)c2cc3cc(Cl)c(Cl)cc3[nH]2)[C@@H](C)CN1Cc1ccc(F)cc1` (racemic) [Compound 3.20, (trans)-(5,6-Dichloro-indol-2-yl-carbonyl)-4-(4-fluorobenzyl)-2,5-dimethylpiperazine] has an IC50 [1] of 15 nM.
With `COc1cccc2cc(C(=O)N3C[C@@H](C)N(Cc4ccc(F)cc4)C[C@H]3C)oc12` (racemic) [Compound A, (cis)-4-(4-Fluorobenzyl)-1-(7-methoxy-benzofuran-2-yl-carbonyl)-2,5-dimethylpiperazine, reference compound] the IC50 [1] was greater than 1000 nM.
For `COc1cccc2cc(C(=O)N3C[C@@H](C)N(Cc4ccc(F)cc4)C[C@@H]3C)oc12` (racemic) [Compound D, (trans)-4-(4-Fluorobenzyl)-1-(7-methoxy-benzofuran-2-yl-carbonyl)-2,5-dimethylpiperazine, reference compound], the IC50 [1] was greater than 1000 nM.

Reference: patent US7339059B2, “Benzofurans and indols” (Active Biotech AB, priority 2004, dated 2008)
